The experiment has as its target T1, purine nucleoside phosphorylase (PNP) (Bos taurus, UniProt P55859).
T1 sequence (P55859 1-289): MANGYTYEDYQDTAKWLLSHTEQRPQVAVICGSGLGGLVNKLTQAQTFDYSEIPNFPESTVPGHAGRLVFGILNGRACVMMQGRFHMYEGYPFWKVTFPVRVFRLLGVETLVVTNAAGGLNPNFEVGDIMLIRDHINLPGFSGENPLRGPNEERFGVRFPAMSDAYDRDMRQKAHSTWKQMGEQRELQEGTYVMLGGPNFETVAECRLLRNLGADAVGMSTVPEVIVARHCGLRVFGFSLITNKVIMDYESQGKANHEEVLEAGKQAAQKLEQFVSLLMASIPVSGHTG
Kind of experiment: Purine nucleoside phosphorylase (PNP) radiochemical enzyme assay, [14C]-hypoxanthine formation from [14C]-inosine.

Setting [1] is: IC50 (nM), table of Examples 36-42, phosphate concentration not printed in table (Ex. 37 and 38 values agree with 1 mM phosphate in text).
Setting [2] is: IC50 (PNP inhibition), 1 mM phosphate, calf spleen PNP.
Where [3] appears, read: IC50 (PNP inhibition), 50 mM phosphate, calf spleen PNP.

On to `Nc1nc(O)c2[nH]c(N)c(Cc3cccs3)c2n1` [2,6-diamino-3,5-dihydro-7-(2-thienylmethyl)-4H-pyrollo-[3,2-d]pyrimidine-4-one, reference compound], for which the IC50 (commonly the concentration at which inhibition is half-maximal) under setting [1] was 160 nM.

For the compound `N#CCC(c1cc(Cl)cc(Cl)c1Cl)c1c[nH]c2c(=O)[nH]c(N)nc12` (stereo not shown) [Example 8A], the IC50 is 640 nM under setting [2] and 10000 nM under setting [3].

For `Nc1nc(O)c2[nH]cc(C(CC(=O)O)c3ccccc3)c2n1` (stereo not shown) [Example 15, 3-(2-amino-4-oxo-3H,5H-pyrrolo[3,2-d]pyrimidin-7-yl)-3-phenylpropanoic acid], the IC50 by setting is: under setting [2], 12 nM; under setting [3], 190 nM.

Turning to `COC(=O)CC(c1ccccc1)c1c[nH]c2c(=O)[nH]c(N)nc12` (stereo not shown) [Example 19, 3-(2-amino-4-oxo-3H,5H-pyrrolo[3,2-d]pyrimidin-7-yl)-3-phenylpropanoic acid, methyl ester], the “enzyme inhibition activity (IC50), in words” value (phosphate concentration not stated) was “Significant activity”.

For `N#CCC(c1cccc(Cl)c1)c1c[nH]c2c(=O)[nH]cnc12` (stereo not shown) [Example 40], 10 nM corresponded to half-maximal inhibition under setting [1] (IC50).

Values taken from patent US5726311A, “7-disubstituted-methyl-4-oxo-3H,5H-pyrrolo[3,2-d]pyrimidine and pharmaceutical uses and compositions containing the same” (BioCryst Pharmaceuticals, Inc., priority 1995, dated 1998).
